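Protocol summary: plate cells (96-well), add compound at 5 concentrations, incubate 48 h, interpolate endpoints linearly. GI50: concentration for 50% inhibition of growth. Definition used: TGI = concentration required for complete inhibition of growth.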

For one assay, the system named is KM12 colon. The experiment in a line: NCI anticancer screen, dose series, 48 h.
For `Cn1c(N2NC(=O)C(N=Nc3ccc(S(N)(=O)=O)cc3)C2=O)nc(-c2ccco2)c(C#N)c1=O` (stereo not given), the GI50 was greater than 50 µM and the TGI was greater than 50 µM.
Regarding `NCC(=O)NS(=O)(=O)OC[C@H]1O[C@@H](n2cnc3c(N)ncnc32)[C@H](O)[C@@H]1O`, the GI50 was 3.22 µM and the TGI came to 14.4 µM.
Take `Cc1c(C(=O)N/N=C/c2ccc(Cl)cc2)nnn1-c1ccnc2c(C(F)(F)F)cccc12`: the GI50 is 8.94 µM and the TGI worked out at 41.7 µM.
In the case of `Cc1nn(CN2CCN(C)CC2)c(=S)n1/N=C/c1cccc2ccccc12`, the GI50 was 19.3 µM and the TGI was 41.4 µM.
With `N#C/C(=C1C=C/C(=N/O)C(Br)=C/1)c1ccccc1`, the GI50 was 0.347 µM and the TGI was found to be 1.42 µM.
As for `CN(C)CCNc1cc(-c2ccccc2)nc2ccccc12`, the GI50 is 4.87 µM and the TGI is 27.4 µM.

The next assay has as its system SF-295 CNS. The experiment in a line: NCI anticancer screen, dose series, 48 h.
Regarding `Cn1c(N2NC(=O)C(N=Nc3ccc(S(N)(=O)=O)cc3)C2=O)nc(-c2ccco2)c(C#N)c1=O` (stereo not given), the GI50 was greater than 50 µM and the TGI is greater than 50 µM.
For the molecule `NCC(=O)NS(=O)(=O)OC[C@H]1O[C@@H](n2cnc3c(N)ncnc32)[C@H](O)[C@@H]1O`, the GI50 was 0.861 µM and the TGI came to 2.56 µM.
As for `Cc1c(C(=O)N/N=C/c2ccc(Cl)cc2)nnn1-c1ccnc2c(C(F)(F)F)cccc12`, the GI50 was 1.82 µM and the TGI was 4.01 µM.
As to `Cc1nn(CN2CCN(C)CC2)c(=S)n1/N=C/c1cccc2ccccc12`, the GI50 was 24.9 µM and the TGI came out at 59.5 µM.
Consider `N#C/C(=C1C=C/C(=N/O)C(Br)=C/1)c1ccccc1`, for which the GI50 is 2.81 µM and the TGI came out at 8.47 µM.
For `CN(C)CCNc1cc(-c2ccccc2)nc2ccccc12`, the GI50 is 7.85 µM and the TGI is 46.9 µM.

In another assay the test system is NCI-H23 lung. Kind of assay: NCI anticancer screen, dose series, 48 h.
Take `Cn1c(N2NC(=O)C(N=Nc3ccc(S(N)(=O)=O)cc3)C2=O)nc(-c2ccco2)c(C#N)c1=O` (stereo not given): the GI50 is 12.8 µM and the TGI is greater than 50 µM.
The corresponding values for `NCC(=O)NS(=O)(=O)OC[C@H]1O[C@@H](n2cnc3c(N)ncnc32)[C@H](O)[C@@H]1O` are 2.56 µM and 7.04 µM.
The corresponding values for `Cc1c(C(=O)N/N=C/c2ccc(Cl)cc2)nnn1-c1ccnc2c(C(F)(F)F)cccc12` are 13.5 µM and 35.9 µM.
`Cc1nn(CN2CCN(C)CC2)c(=S)n1/N=C/c1cccc2ccccc12`: the GI50 is 21.7 µM and the TGI came out at 56.2 µM.
Turning to `N#C/C(=C1C=C/C(=N/O)C(Br)=C/1)c1ccccc1`, the GI50 is 5.26 µM and the TGI is 96.8 µM.
With `CN(C)CCNc1cc(-c2ccccc2)nc2ccccc12`, the GI50 was 11.2 µM and the TGI worked out at 37.6 µM.

For a further assay, the system named is K-562 leukemia. Kind of assay: NCI anticancer screen, dose series, 48 h.
Take `Cn1c(N2NC(=O)C(N=Nc3ccc(S(N)(=O)=O)cc3)C2=O)nc(-c2ccco2)c(C#N)c1=O` (stereo not given): the GI50 is 5.69 µM and the TGI turned out to be 31.2 µM.
On to `NCC(=O)NS(=O)(=O)OC[C@H]1O[C@@H](n2cnc3c(N)ncnc32)[C@H](O)[C@@H]1O`, for which the GI50 is 3.71 µM and the TGI turned out to be 11.8 µM.
Consider `Cc1c(C(=O)N/N=C/c2ccc(Cl)cc2)nnn1-c1ccnc2c(C(F)(F)F)cccc12`, for which the GI50 was 5.74 µM and the TGI came out at 42.2 µM.
For `Cc1nn(CN2CCN(C)CC2)c(=S)n1/N=C/c1cccc2ccccc12`, the GI50 is 15.2 µM and the TGI worked out at 37.5 µM.
The like results for `N#C/C(=C1C=C/C(=N/O)C(Br)=C/1)c1ccccc1` were, in that order, 0.878 µM and 12.6 µM.
As to `CN(C)CCNc1cc(-c2ccccc2)nc2ccccc12`, the GI50 was 2.6 µM and the TGI stood at 12.3 µM.

Another assay has as its system NCI-H226 lung. The experiment in a line: NCI anticancer screen, dose series, 48 h.
As to `Cn1c(N2NC(=O)C(N=Nc3ccc(S(N)(=O)=O)cc3)C2=O)nc(-c2ccco2)c(C#N)c1=O` (stereo not given), the GI50 was greater than 50 µM and the TGI was greater than 50 µM.
Regarding `NCC(=O)NS(=O)(=O)OC[C@H]1O[C@@H](n2cnc3c(N)ncnc32)[C@H](O)[C@@H]1O`, the GI50 was 2 µM and the TGI is 3.77 µM.
The corresponding values for `Cc1c(C(=O)N/N=C/c2ccc(Cl)cc2)nnn1-c1ccnc2c(C(F)(F)F)cccc12` are 2.77 µM and 8.32 µM.
On to `Cc1nn(CN2CCN(C)CC2)c(=S)n1/N=C/c1cccc2ccccc12`, for which the GI50 is 17.1 µM and the TGI came to 34.9 µM.
Regarding `N#C/C(=C1C=C/C(=N/O)C(Br)=C/1)c1ccccc1`, the GI50 was 3.59 µM and the TGI is 11.6 µM.
For the molecule `CN(C)CCNc1cc(-c2ccccc2)nc2ccccc12`, the GI50 is 5.98 µM and the TGI stood at 30.2 µM.

A further assay concerns DU-145 prostate. Kind of assay: NCI anticancer screen, dose series, 48 h.
As to `Cn1c(N2NC(=O)C(N=Nc3ccc(S(N)(=O)=O)cc3)C2=O)nc(-c2ccco2)c(C#N)c1=O` (stereo not given), the GI50 was 14.9 µM and the TGI was greater than 50 µM.
The corresponding values for `NCC(=O)NS(=O)(=O)OC[C@H]1O[C@@H](n2cnc3c(N)ncnc32)[C@H](O)[C@@H]1O` are 0.699 µM and 5.61 µM.
As for `Cc1c(C(=O)N/N=C/c2ccc(Cl)cc2)nnn1-c1ccnc2c(C(F)(F)F)cccc12`, the GI50 is 4.89 µM and the TGI worked out at 20.5 µM.
In the case of `Cc1nn(CN2CCN(C)CC2)c(=S)n1/N=C/c1cccc2ccccc12`, the GI50 was 31.7 µM and the TGI was greater than 100 µM.
Consider `N#C/C(=C1C=C/C(=N/O)C(Br)=C/1)c1ccccc1`, for which the GI50 was 3.24 µM and the TGI was 9.69 µM.
`CN(C)CCNc1cc(-c2ccccc2)nc2ccccc12`: the GI50 was 5.04 µM and the TGI was 22.2 µM.

The test system of another assay is SNB-75 CNS. The experiment in a line: NCI anticancer screen, dose series, 48 h.
Regarding `Cn1c(N2NC(=O)C(N=Nc3ccc(S(N)(=O)=O)cc3)C2=O)nc(-c2ccco2)c(C#N)c1=O` (stereo not given), the GI50 is 39.2 µM and the TGI is greater than 50 µM.
Turning to `NCC(=O)NS(=O)(=O)OC[C@H]1O[C@@H](n2cnc3c(N)ncnc32)[C@H](O)[C@@H]1O`, the GI50 is 1.14 µM and the TGI worked out at 3.32 µM.
In the case of `Cc1c(C(=O)N/N=C/c2ccc(Cl)cc2)nnn1-c1ccnc2c(C(F)(F)F)cccc12`, the GI50 was 2.63 µM and the TGI was found to be 5.18 µM.
As to `Cc1nn(CN2CCN(C)CC2)c(=S)n1/N=C/c1cccc2ccccc12`, the GI50 was 11.1 µM and the TGI came to 38.1 µM.
In the case of `N#C/C(=C1C=C/C(=N/O)C(Br)=C/1)c1ccccc1`, the GI50 is 3.42 µM and the TGI is 22.6 µM.
The like results for `CN(C)CCNc1cc(-c2ccccc2)nc2ccccc12` were, in that order, 9.57 µM and 23.4 µM.

The next assay has as its system HOP-92 NSCLC. The experiment in a line: NCI anticancer screen, dose series, 48 h.
On to `Cn1c(N2NC(=O)C(N=Nc3ccc(S(N)(=O)=O)cc3)C2=O)nc(-c2ccco2)c(C#N)c1=O` (stereo not given), for which the GI50 was 25.5 µM and the TGI was greater than 50 µM.
Turning to `NCC(=O)NS(=O)(=O)OC[C@H]1O[C@@H](n2cnc3c(N)ncnc32)[C@H](O)[C@@H]1O`, the GI50 is 2.97 µM and the TGI is 6.78 µM.
The corresponding values for `Cc1c(C(=O)N/N=C/c2ccc(Cl)cc2)nnn1-c1ccnc2c(C(F)(F)F)cccc12` are 3.62 µM and 16.2 µM.
`Cc1nn(CN2CCN(C)CC2)c(=S)n1/N=C/c1cccc2ccccc12`: the GI50 is 19.9 µM and the TGI is 46.5 µM.
On to `N#C/C(=C1C=C/C(=N/O)C(Br)=C/1)c1ccccc1`, for which the GI50 is 0.385 µM and the TGI turned out to be 3.77 µM.
The corresponding values for `CN(C)CCNc1cc(-c2ccccc2)nc2ccccc12` are 3.21 µM and 21.3 µM.

The next assay has as its system SK-OV-3 ovarian. The experiment in a line: NCI anticancer screen, dose series, 48 h.
For `Cn1c(N2NC(=O)C(N=Nc3ccc(S(N)(=O)=O)cc3)C2=O)nc(-c2ccco2)c(C#N)c1=O` (stereo not given), the GI50 was greater than 50 µM and the TGI is greater than 50 µM.
For the molecule `NCC(=O)NS(=O)(=O)OC[C@H]1O[C@@H](n2cnc3c(N)ncnc32)[C@H](O)[C@@H]1O`, the GI50 is 2.87 µM and the TGI is 7.94 µM.
The corresponding values for `Cc1c(C(=O)N/N=C/c2ccc(Cl)cc2)nnn1-c1ccnc2c(C(F)(F)F)cccc12` are 11.6 µM and 25.2 µM.
For the molecule `Cc1nn(CN2CCN(C)CC2)c(=S)n1/N=C/c1cccc2ccccc12`, the GI50 is 16 µM and the TGI amounted to 42.3 µM.
`N#C/C(=C1C=C/C(=N/O)C(Br)=C/1)c1ccccc1`: the GI50 is 4.43 µM and the TGI was 71.6 µM.
Turning to `CN(C)CCNc1cc(-c2ccccc2)nc2ccccc12`, the GI50 was 9.24 µM and the TGI was determined as 39 µM.

A further assay has as its system SK-MEL-5 melanoma. The experiment in a line: NCI anticancer screen, dose series, 48 h.
For `Cn1c(N2NC(=O)C(N=Nc3ccc(S(N)(=O)=O)cc3)C2=O)nc(-c2ccco2)c(C#N)c1=O` (stereo not given), the GI50 was 35.3 µM and the TGI is greater than 50 µM.
For `NCC(=O)NS(=O)(=O)OC[C@H]1O[C@@H](n2cnc3c(N)ncnc32)[C@H](O)[C@@H]1O`, the GI50 is 1.85 µM and the TGI was determined as 3.34 µM.
Regarding `Cc1c(C(=O)N/N=C/c2ccc(Cl)cc2)nnn1-c1ccnc2c(C(F)(F)F)cccc12`, the GI50 was 28.4 µM and the TGI is greater than 100 µM.
Turning to `Cc1nn(CN2CCN(C)CC2)c(=S)n1/N=C/c1cccc2ccccc12`, the GI50 was 16.9 µM and the TGI amounted to 32.1 µM.
As for `N#C/C(=C1C=C/C(=N/O)C(Br)=C/1)c1ccccc1`, the GI50 is 2.75 µM and the TGI turned out to be 10.4 µM.
Consider `CN(C)CCNc1cc(-c2ccccc2)nc2ccccc12`, for which the GI50 was 10.1 µM and the TGI came to 22.4 µM.
